Measured values reported in the METLIN SMRT retention time set (Domingo-Almenara et al. 2019).

Assay: gradient 5% acetonitrile 3 min, to 50% in 2 min, to 85% in 15 min, held 3 min, 100 µL/min
Details: column: Zorbax Extend-C18 2.1 x 50 mm; eluents: water / acetonitrile, 0.1% formic acid
How it was run: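 Pure standards were run in mixtures of ~100 molecules by HPLC coupled to a quadrupole time-of-flight mass spectrometer. The column was a Zorbax Extend-C18 (2.1 × 50 mm, 1.8 μm) at 100 μL/min, with water and acetonitrile each containing 0.1% formic acid, in positive and negative ionization mode. Dead and dwell volumes were 40 μL and 900 μL. Retention time was taken from computationally picked adduct peaks, each manually inspected, with data collected over 3 months.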

SMILES | RP-LC retention time [s]
O=c1n(Cc2cccc(F)c2)nc2c(S(=O)(=O)N3CCOCC3)cccn12 | 741
Cc1ccc(NS(=O)(=O)c2ccc3c(c2)C(=O)N(C)c2ncccc2O3)cc1 | 914
NC(=O)C1CCN(C(=O)CN2CCN(c3cccc(Cl)c3)CC2)CC1 | 600
Cc1nn(CC(=O)N2CCN(c3ccccn3)CC2)c(=O)c2nc(-c3ccccc3)sc12 | 632
CCOc1ccc2sc(NS(=O)(=O)c3ccc(N)cc3)nc2c1 | 797
CCN(Cc1ccc(Cl)cc1)Cc1cc(=O)n2cccc(C)c2n1 | 648
CCSc1ccccc1C(=O)Nc1nnc(-c2ccsc2)o1 | 751
COc1ccc(-c2nnc(COc3ccc(NC(=O)c4ccc(Br)o4)cc3)o2)cc1 | 934
Cc1ccsc1C(=O)Nc1ccc(SCc2nnc(-c3ccc4c(c3)OCO4)o2)cc1 | 978
Cc1cn(-c2cc(NC(=O)c3ccc(C)c(Nc4nccc(-c5cccnc5)n4)c3)cc(C(F)(F)F)c2)cn1 | 776
Cc1ccc(N2CCN(S(=O)(=O)c3ccc(-c4nnc(C5CC5)o4)o3)CC2)cc1 | 1040
Cc1cccc(-n2c(=O)c3sccc3n(Cc3nc(-c4ccccc4)no3)c2=O)c1 | 1010
Brc1c(Br)c(Br)c2[nH]cnc2c1Br | 979
CSc1nc(N)c(C(=O)NC2CCCCC2)s1 | 878
Cc1ccc(Nc2c(-c3ccc(N(C)C)cc3)nc3cc(C)ccn23)cc1 | 828
Fc1ccc(-c2noc(Cc3nc(-c4ccc(Cl)cc4)cs3)n2)cc1 | 1310
Cc1oc(-c2ccc(Cl)cc2)nc1COc1cc(C)c2c(C)nn(C)c2n1 | 1280
O=C1NC(C(=O)NCc2cccs2)Cn2cccc21 (stereo not given) | 620
O=C(Nc1nccnc1C(=O)NCCN1CCOCC1)c1ccccc1 | 569

SMILES | RP-LC retention time [s]
CCc1nc2cc(-c3noc(-c4ccccc4Br)n3)ccc2o1 | 1260
Cc1c(CC(=O)N2CCC(C(N)=O)CC2)c(=O)oc2cc3oc4c(c3cc12)CCCC4 | 764
O=C(Nc1ccc(Br)cc1F)c1ccc(-n2ccnc2)nn1 | 693
N#Cc1ccc(C(=O)NC(c2ccccc2)c2nnc(N3CCCCC3)o2)cc1 (stereo not given) | 740
CCOc1ccc(NC(=O)NCCC2CCN(S(=O)(=O)c3ccccc3)CC2)cc1 | 836
COc1ccc(N(CCC#N)S(=O)(=O)c2cccc3nsnc23)cc1 | 789
CCCCS(=O)(=O)N1CCc2nc(-c3ccccc3)ncc2C1 | 970
CCOC(=O)CC1(NC(=O)N2CCc3c(c(C(=O)N4CCCCC4)nn3C)C2)CCCCC1 | 810
Cc1ccc(CNC(=O)C2(C)Cn3nc(C(=O)NCc4ccccc4)cc3C(=O)N2C)cc1 (stereo not given) | 766
O=C(NCc1ccccc1Cl)C(=O)N1CCN(Cc2ccc3c(c2)OCO3)CC1 | 583
O=S(=O)(NCCN1CCOCC1)c1cc(-c2noc(C3CCCC3)n2)cs1 | 678
O=C(NCCCN1CCCCC1)c1ccc2ccnc(N3CCN(c4ccc(Cl)cc4)CC3)c2c1 | 645
CCCS(=O)(=O)c1nc2ccc(NS(=O)(=O)c3ccc(Cl)cc3)cc2s1 | 984
CC1CS(=O)(=O)N(c2ccc(C(=O)NCCc3c[nH]c4ccccc34)c(Cl)c2)C1=O (stereo not given) | 809
COc1ccc(-c2noc(COC(=O)C3=CN(Cc4ccccc4)S(=O)(=O)N=C3C)n2)cc1 | 1090
Cc1ccc(C(=O)N2CCN(c3nnc4ccccn34)CC2)cc1F | 647
CCOC(=O)c1coc(NC(=O)Nc2cccs2)n1 | 706
c1cncc(-c2n[nH]c(C3CCCN(Cc4ccsc4)C3)n2)c1 (stereo not given) | 552

Other lines, results leading:

RP-LC retention time [s] | SMILES
885 | O=S(=O)(c1ccc(F)cc1)N1CCC(c2noc(C3CC3)n2)C1 (stereo not given)
572 | C=CCN1CCN(C(=O)C2CCN(c3cc(Nc4ccc(C)cc4)ncn3)CC2)CC1
907 | CCCN1CCCCc2cc(C(=O)NC(C)COC)sc21 (stereo not given)
895 | CC1=C(c2ccc(C)cc2)S(=O)(=O)N=C1N1CCCN(C(=O)NCCC(C)C)CC1
698 | O=C(c1cnccn1)N1CCCC1c1nc(CCOCC2CC2)no1 (stereo not given)
651 | COc1ccccc1N1CCN(C(=O)c2cc3c(=O)n(C)ccc3n2C)CC1
567 | CN(CC(O)COc1ccc2c(c1)OCO2)C1CCCCC1 (stereo not given)
723 | Cc1cccc(CNC(=O)C2CCc3nc(N4CCOCC4)ncc3C2)c1 (stereo not given)
724 | COC[C@@H]1OCCN(Cc2ccc(C)c(C)c2)[C@H]1c1ccccc1
710 | Cc1cc(C(=O)NC2CCCC2)c2cc(F)ccc2n1
828 | Cc1cccc(-c2nnc(CC(=O)NCCC(C)C)o2)c1
519 | COc1cccc(CN2CC[C@@](C)(O)[C@H](N3CCCC3)C2)c1
633 | COc1ccc(C2CC(=O)c3cnc(N4CCN(c5ccccn5)CC4)nc3C2)cc1OC (stereo not given)
744 | CN(C)c1ccc(CNC(=O)C2CCCN(c3nccnc3Sc3ccccc3)C2)cc1 (stereo not given)
1100 | CCCn1cc(C(=O)Nc2ccc(OC)cc2)c(=O)c2ccc(C)nc21
811 | Cc1cccc(NC(=O)N2C[C@@H](F)C[C@H]2C(=O)N2CCc3ccccc3C2)c1C
652 | Cc1ccc(NC(=O)C2CCCN(S(=O)(=O)c3c[nH]c(C(=O)N4CCCCCC4)c3)C2)cc1F (stereo not given)
977 | Cc1ccc(NS(=O)(=O)c2ccc(-c3nnc(C4CCC4)o3)o2)c(C)c1
800 | CCC(=O)N1CCc2ccc(C(=O)NC3CCCCC3)cc21
821 | COc1ccc(NC(=O)C2CCN(S(=O)(=O)c3ccc4[nH]c(=O)sc4c3)CC2)cc1Cl
994 | Cn1cccc1CN(C(=O)c1ccc(Cl)c(Cl)c1)C1CC1
707 | COc1ccc(NS(=O)(=O)c2cc(-c3[nH]ncc3C(=O)N3CCCC3)oc2C)c(C)c1
639 | CCCNC(=O)C1CCN(c2ccc(SCC(=O)Nc3ccc(OCC)cc3)nn2)CC1
1020 | CCCc1cc(C2CCCN2C(=O)Nc2cc(C)ccc2OC)no1 (stereo not given)
762 | CCOc1ccccc1NC(=O)Cn1c(=O)c(CCC(=O)NCC(C)C)nc2ccccc21
907 | O=C(Cn1cccc1-c1nnc(C2CCC2)o1)NCc1ccccc1Cl
1350 | Cc1ccc(-c2csc(NC(=O)COc3ccc(Cl)cc3C)n2)cc1

RP-LC retention time [s] | SMILES
799 | Cc1cc(C(=O)NC2CCCCCC2)nn1C
676 | COc1ccc(CNC(=O)C2CCCN(c3cnc4nccnc4c3)C2)cc1 (stereo not given)
645 | COC[C@@H]1CN(Cc2ccc(Cl)c(F)c2)C[C@H]1c1nc(C)no1
968 | CC1(C)C(=O)N(CC(=O)Nc2cccc(Br)c2)c2ccccc21
595 | CCC(C(=O)NCCN1CCN(CC)CC1)n1c2ccccc2c2cnn(C)c(=O)c21 (stereo not given)
867 | COc1ccc(NC(=O)c2sc(-c3cn(C)c4ncccc34)nc2C)cc1
623 | CN1CCc2nnc(C3CCN(C(=O)Nc4cc(Cl)cc(Cl)c4)C3)n2CC1 (stereo not given)
719 | CN1C(=O)c2cc(C(=O)NC3CCCC3)nn2CC1(C)C(=O)NCc1ccc(F)cc1 (stereo not given)
894 | Cc1nc(-c2noc(-c3ccccc3)n2)cn1CC(=O)N1CCN(c2ccccc2F)CC1
750 | C=CCNC(=O)c1cn(-c2ccc(-c3nc(CC)no3)cn2)cn1
1020 | CCc1cccc(C)c1NS(=O)(=O)c1ccc(-c2c(C)noc2C)cc1
876 | CCCn1c(=O)sc2cc(S(=O)(=O)N3CCC(C(=O)N4CCCCC4)CC3)ccc21
880 | COc1ccc(Cl)cc1NC(=O)C1CCN(S(=O)(=O)c2ccc3c(c2)NC(=O)CO3)CC1
787 | COc1cccc(N2C(=O)NC3CC2(C)Oc2ccc(OC)cc23)c1 (stereo not given)
895 | CC1=NS(=O)(=O)N(C)C=C1C(=O)OCc1nc(-c2ccccc2F)no1
640 | CCCc1ccc(S(=O)(=O)N2CCC(n3cnc4c(C)cccc4c3=O)CC2)cc1
816 | Cc1cccc(CNC(=O)C2(C)Cn3cnc(C(=O)N(C)Cc4ccccc4)c3C(=O)N2C2CC2)c1 (stereo not given)
732 | Cc1nn(CC(=O)NCc2ccco2)c(=O)c2nn(-c3ccccc3)c(C)c12
663 | COCCN1C(=O)c2cccn2CC1CNC(=O)Nc1ccc2c(c1)OCCO2 (stereo not given)
976 | CCCCOC(=O)c1ccc(NC(=O)c2ccc(N3CCCCS3(=O)=O)cc2)cc1
720 | COc1cccc(C(=O)CC2(O)C(=O)Nc3ccc(C)cc32)c1 (stereo not given)
609 | Cc1cccc(CN2CCN(CC(=O)NC3CCN(Cc4ccccc4)CC3)C(=O)C2=O)c1
819 | Cc1noc(-c2cc(=O)n(CC(=O)NC3CCCCC3)c3ccccc23)n1
981 | Cc1ccc(Cn2c(=O)c(N3CCN(C(=O)NC(C)C)CC3)nc3ccccc32)cc1
1010 | CCOC(=O)c1ccccc1NC(=O)Cn1nc2c(N3CCSCC3)nccn2c1=O
927 | COc1cccc2sc(N(Cc3ccco3)C(=O)c3cc(C)nn3C)nc12
